{
  "source": "paper PMC8580996",
  "about": "“2-Oxoglutarate derivatives can selectively enhance or inhibit the activity of human oxygenases” (Nature Communications, 2021)",
  "target": "FIH (Homo sapiens, UniProt Q9NWT6)",
  "sequence (Q9NWT6 whole entry)": "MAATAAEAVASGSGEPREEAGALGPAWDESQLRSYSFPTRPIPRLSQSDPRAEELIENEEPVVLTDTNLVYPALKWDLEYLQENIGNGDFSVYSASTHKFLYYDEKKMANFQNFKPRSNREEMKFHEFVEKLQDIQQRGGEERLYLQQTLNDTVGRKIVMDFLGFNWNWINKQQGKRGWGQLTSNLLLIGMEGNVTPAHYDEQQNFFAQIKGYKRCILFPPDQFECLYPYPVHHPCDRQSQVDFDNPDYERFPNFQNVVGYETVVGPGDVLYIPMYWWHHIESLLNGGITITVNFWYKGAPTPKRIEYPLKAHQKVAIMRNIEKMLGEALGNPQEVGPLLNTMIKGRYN",
  "assay": "FIH steady-state kinetic parameters (SPE-MS, initial hydroxylation rates)",
  "assay_type": "biochemical",
  "parameters": "slope of initial reaction rate: unit not given here",
  "method": "Final 2OG/2OG derivative concentrations are given in Supplementary Figs. 5 and 6. Reactions were monitored with a rate of ~1 sample/40 s using the same SPE-MS configuration as described above. Data were analyzed as described above and the slopes of the initial reaction rates (Supplementary Figs. 5 and 6) fitted to a Michaelis–Menten plot using non-linear regression (GraphPad Prism 5). […]\ndetermine kinetic parameters for 2OG derivatives (continues on the following page). Maximum velocities (vapp ) and Michaelis constants (Kapp) of FIH were determined in independent triplicates for 2OG and the 2OG […]\nSPE-MS as described in the Methods section. […]\nacid (LAA), and 20 μM ammonium iron(II) sulfate hexahydrate (FAS, (NH4)2Fe(SO4)2·6H2O) in buffer (50 mM […]\nTris, 50 mM NaCl, pH 7.5, 20° C). […]\ndata are provided as a Source Data file. […]\nconcentrations of 2OG; (b) hydroxylation rates used to determine kinetic parameters of FIH for 2OG; (c) time […]\n3-methyl-2OG (1); (d) hydroxylation rates used to determine kinetic parameters of FIH for 1; (e) time course of […]\n2OG (12); (f) hydroxylation rates used to determine kinetic parameters of FIH for 12; (g) time course of the FIH- […]\n(h) hydroxylation rates used to determine kinetic parameters of FIH for 14; (i) time course of the FIH-catalyzed […]\n(carboxycarbonyl)cyclopentane-1-carboxylic acid (22); (j) hydroxylation rates used to determine kinetic parameters of FIH for 22.\nSupplementary Figure 6. Hydroxylation rates of FIH-catalyzed CA1-20 hydroxylations used to determine kinetic parameters for 2OG derivatives (continues on the following page). Maximum velocities (vapp ) and […]\nammonium iron(II) sulfate hexahydrate (FAS, (NH4)2Fe(SO4)2·6H2O) in buffer (50 mM Tris, 50 mM NaCl, pH […]\nSource data are provided as a Source […]\nof 2OG; (b) hydroxylation rates used to determine kinetic parameters of FIH for 2OG; (c) time course of the FIH-catalyzed hydroxylation reaction of the CA1-20 peptide for the shown concentrations of 3-methyl-2OG (1); (d) hydroxylation rates used to determine kinetic parameters of FIH for 1; (e) time course of the FIH -catalyzed hydroxylation reaction of the CA 1-20 peptide for the shown concentrations of 4 -methyl-2OG (12); (f) hydroxylation rates used to determine kinetic parameters of FIH for 12; (g) time course of the FIH-catalyzed hydroxylation reaction of the CA1-20 peptide for the shown concentrations of 4-ethyl-2OG (14); (h) hydroxylation rates used to determine kinetic parameters of FIH for 14; (i) time course of the FIH-catalyzed hydroxylation reaction of the CA1-20 peptide for the shown concentrations of 3-(carboxycarbonyl)cyclopentane-1-carboxylic acid (22); (j) hydroxylation rates used to determine kinetic parameters of FIH for 22.",
  "note": "“And” between values parts separate entries of the source, which are not always exact repeats. Equal entries are not always repeated.",
  "data": [
    {"smiles": "O=C(O)C(=O)C1CCC(C(=O)O)C1", "note": "(stereo not shown) [compound 22, 3-(carboxycarbonyl)cyclopentane-1-carboxylic acid]", "values": [
      {"measurement": "SPE-MS determined concentration of hydroxylated HIF-1a peptide", "setting": "4 uM compound 22, time 2.098 min", "value": "0.04779 µM and 0.05783 µM and 0.03772 µM"},
      {"measurement": "SPE-MS determined concentration of hydroxylated HIF-1a peptide", "setting": "4 uM compound 22, time 2.797 min", "value": "0.05438 µM and 0.0588 µM and 0.03391 µM"},
      {"measurement": "SPE-MS determined concentration of hydroxylated HIF-1a peptide", "setting": "4 uM compound 22 as cosubstrate, time 3.49667 min, replicates 1-3", "value": "0.05919 µM and 0.07205 µM and 0.04053 µM"},
      {"measurement": "SPE-MS determined concentration of hydroxylated HIF-1a peptide", "setting": "8 uM compound 22, time 0.699833 min", "value": "0.02809 µM and 0.04706 µM and 0.04281 µM"},
      {"measurement": "SPE-MS determined concentration of hydroxylated HIF-1a peptide", "setting": "8 uM compound 22, time 2.098 min", "value": "0.0572 µM and 0.06337 µM and 0.07945 µM"},
      {"measurement": "SPE-MS determined concentration of hydroxylated HIF-1a peptide", "setting": "8 uM compound 22, time 2.797 min", "value": "0.05834 µM and 0.07508 µM and 0.08857 µM"},
      {"measurement": "SPE-MS determined concentration of hydroxylated HIF-1a peptide", "setting": "8 uM compound 22 as cosubstrate, time 3.49667 min, replicates 1-3", "value": "0.08563 µM and 0.07413 µM and 0.09575 µM"},
      {"measurement": "SPE-MS determined concentration of hydroxylated HIF-1a peptide", "setting": "8 uM compound 22 as cosubstrate, time 4.19733 min, replicates 1-3", "value": 0.0782, "unit": "µM"},
      {"measurement": "SPE-MS determined concentration of hydroxylated HIF-1a peptide", "setting": "16 uM compound 22, time 0.699833 min", "value": "0.06076 µM and 0.05382 µM and 0.0426 µM"},
      {"measurement": "SPE-MS determined concentration of hydroxylated HIF-1a peptide", "setting": "16 uM compound 22, time 2.098 min", "value": "0.08485 µM and 0.09545 µM and 0.07537 µM"},
      {"measurement": "SPE-MS determined concentration of hydroxylated HIF-1a peptide", "setting": "16 uM compound 22, time 2.797 min", "value": "0.09668 µM and 0.1092 µM and 0.09109 µM"},
      {"measurement": "SPE-MS determined concentration of hydroxylated HIF-1a peptide", "setting": "16 uM compound 22 as cosubstrate, time 3.49667 min, replicates 1-3", "value": "0.105 µM and 0.1268 µM and 0.09176 µM"},
      {"measurement": "SPE-MS determined concentration of hydroxylated HIF-1a peptide", "setting": "32 uM compound 22, time 0.699833 min", "value": "0.06848 µM and 0.06274 µM and 0.0479 µM"},
      {"measurement": "SPE-MS determined concentration of hydroxylated HIF-1a peptide", "setting": "32 uM compound 22, time 2.098 min", "value": "0.1104 µM and 0.1151 µM and 0.1012 µM"},
      {"measurement": "SPE-MS determined concentration of hydroxylated HIF-1a peptide", "setting": "32 uM compound 22, time 2.797 min", "value": "0.1309 µM and 0.1405 µM and 0.1242 µM"},
      {"measurement": "SPE-MS determined concentration of hydroxylated HIF-1a peptide", "setting": "32 uM compound 22 as cosubstrate, time 3.49667 min, replicates 1-3", "value": "0.1431 µM and 0.1593 µM and 0.14 µM"},
      {"measurement": "SPE-MS determined concentration of hydroxylated HIF-1a peptide", "setting": "64 uM compound 22, time 0 min", "value": "0.02766 µM and 0.02 µM and 0.02798 µM"},
      {"measurement": "SPE-MS determined concentration of hydroxylated HIF-1a peptide", "setting": "64 uM compound 22, time 0.699833 min", "value": "0.06638 µM and 0.06107 µM and 0.07538 µM"},
      {"measurement": "SPE-MS determined concentration of hydroxylated HIF-1a peptide", "setting": "64 uM compound 22, time 2.098 min", "value": "0.1181 µM and 0.1293 µM and 0.1259 µM"},
      {"measurement": "SPE-MS determined concentration of hydroxylated HIF-1a peptide", "setting": "64 uM compound 22, time 2.797 min", "value": "0.146 µM and 0.1627 µM and 0.1536 µM"},
      {"measurement": "SPE-MS determined concentration of hydroxylated HIF-1a peptide", "setting": "64 uM compound 22 as cosubstrate, time 3.49667 min, replicates 1-3", "value": "0.169 µM and 0.1906 µM and 0.171 µM"},
      {"measurement": "SPE-MS determined concentration of hydroxylated HIF-1a peptide", "setting": "128 uM compound 22, time 0.699833 min", "value": "0.06651 µM and 0.09916 µM and 0.08534 µM"},
      {"measurement": "SPE-MS determined concentration of hydroxylated HIF-1a peptide", "setting": "128 uM compound 22, time 2.098 min", "value": "0.1375 µM and 0.1676 µM and 0.1537 µM"},
      {"measurement": "SPE-MS determined concentration of hydroxylated HIF-1a peptide", "setting": "128 uM compound 22, time 2.797 min", "value": "0.162 µM and 0.1955 µM and 0.1789 µM"},
      {"measurement": "SPE-MS determined concentration of hydroxylated HIF-1a peptide", "setting": "128 uM compound 22 as cosubstrate, time 3.49667 min, replicates 1-3", "value": "0.1878 µM and 0.2084 µM and 0.2042 µM"},
      {"measurement": "SPE-MS determined concentration of hydroxylated HIF-1a peptide", "setting": "256 uM compound 22, time 0 min", "value": "0.05949 µM and 0.04197 µM"},
      {"measurement": "SPE-MS determined concentration of hydroxylated HIF-1a peptide", "setting": "256 uM compound 22, time 0.699833 min", "value": "0.1 µM and 0.09439 µM"},
      {"measurement": "SPE-MS determined concentration of hydroxylated HIF-1a peptide", "setting": "256 uM compound 22, time 2.098 min", "value": "0.1712 µM and 0.1647 µM"},
      {"measurement": "SPE-MS determined concentration of hydroxylated HIF-1a peptide", "setting": "256 uM compound 22, time 2.797 min", "value": "0.1988 µM and 0.1857 µM"},
      {"measurement": "SPE-MS determined concentration of hydroxylated HIF-1a peptide", "setting": "256 uM compound 22 as cosubstrate, time 3.49667 min, replicates 2-3 (replicate 1 empty)", "value": "0.2377 µM and 0.2176 µM"},
      {"measurement": "slope of initial reaction rate", "setting": "CA1-20, 16 μM 22", "value": "0.001019 and 0.001398 and 0.001783"},
      {"measurement": "slope of initial reaction rate", "setting": "CA1-20, 32 μM 22", "value": "0.002274 and 0.002243 and 0.002771"},
      {"measurement": "slope of initial reaction rate", "setting": "CA1-20, 64 μM 22", "value": "0.003753 and 0.003305 and 0.003867"},
      {"measurement": "slope of initial reaction rate", "setting": "CA1-20, 128 μM 22", "value": "0.0046 and 0.003872 and 0.004223"},
      {"measurement": "slope of initial reaction rate", "setting": "CA1-20, 256 μM 22", "value": "0.004108 and 0.004197 and 0.004611"},
      {"measurement": "FIH Kmapp", "setting": "CA1–20 substrate", "value": 39, "unit": "µM"},
      {"measurement": "slope of initial reaction rate", "setting": "HIF-1a788-822, 8 μM 22", "value": "0.000249 and 0.000403 and 0.000322"},
      {"measurement": "slope of initial reaction rate", "setting": "HIF-1a788-822, 16 μM 22", "value": "0.000332 and 0.000535 and 0.000447"},
      {"measurement": "slope of initial reaction rate", "setting": "HIF-1a788-822, 32 μM 22", "value": "0.000561 and 0.000718 and 0.000685"},
      {"measurement": "slope of initial reaction rate", "setting": "HIF-1a788-822, 64 μM 22", "value": "0.000686 and 0.000843 and 0.000711"},
      {"measurement": "slope of initial reaction rate", "setting": "HIF-1a788-822, 128 μM 22", "value": "0.000874 and 0.000824 and 0.000795"},
      {"measurement": "slope of initial reaction rate", "setting": "HIF-1a788-822, 256 μM 22", "value": "0.000833 and 0.000843"},
      {"measurement": "FIH Kmapp", "setting": "HIF-1α788–822 substrate", "value": 15, "unit": "µM"}
    ]}
  ]
}
